# Data reported in ChEMBL document CHEMBL2385028, “Augmentation of GABAergic neurotransmission by novel N-(substituted)-2-[4-(substituted)benzylidene]hydrazinecarbothioamides-a potential anticonvulsant approach” (Eur J Med Chem, 2013).
# Active and inactive are the calls of the source. No cut-off for these calls is given here.
# Experiments:
# [1] = test system: Mus musculus; test: Anticonvulsant activity in albino CF-1 mouse assessed as protection against subcutaneous metrazole-induced seizures in half or more animals at 300 mg/kg, ip after 4 hrs; format: functional, organism-based; design: dose 300 mg/kg
# [2] = test system: Mus musculus; test: Anticonvulsant activity in albino CF-1 mouse at 300 mg/kg, ip assessed as protection against maximal electroshock-induced seizures in half or more animals after 4 hrs; format: functional, organism-based; design: dose 300 mg/kg
# [3] = test system: Mus musculus; test: Anticonvulsant activity in albino CF-1 mouse at 300 mg/kg, ip assessed as protection against maximal electroshock-induced seizures in half or more animals after 0.5 hrs; format: functional, organism-based; design: dose 300 mg/kg
# [4] = test system: Mus musculus; test: Anticonvulsant activity in ip dosed albino CF-1 mouse assessed as protection against subcutaneous metrazole-induced seizures in half or more animals after 0.5 hrs; format: functional; conditions: albino CF-1, 0.5 h, read-out: MED
# [5] = test system: Mus musculus; test: Anticonvulsant activity in albino CF-1 mouse at 300 mg/kg, ip assessed as protection against maximal electroshock-induced seizures in half or more animals after 2 hrs; format: functional, organism-based; design: dose 300 mg/kg
# [6] = test system: Rattus norvegicus; test: Anticonvulsant activity in albino Sprague-Dawley rat assessed as protection against pilocarpine-induced status epilepticus at 600 mg/kg, ip administered prior to pilocarpine-challenge; format: functional, organism-based; design: dose 600 mg/kg
# [7] = test system: Mus musculus; test: Anticonvulsant activity in albino CF-1 mouse assessed as protection against 6 Hz psychomotor seizure at 100 mg/kg, ip after 1 hr by minimal clonic seizure test relative to control; format: functional; conditions: route intraperitoneal
# [8] = Neuroprotective activity in hippocampal slices (unknown origin) assessed as protection against NMDA-induced cell death by propidium-iodide staining-based fluorescence assay; format: functional, tissue-based; conditions: Hippocampus
# [9] = physchem; conditions: octanol/phosphate buffer
# [10] = Neuroprotective activity in hippocampal slices (unknown origin) assessed as protection against kainic acid-induced cell death by propidium-iodide staining-based fluorescence assay; format: functional, tissue-based; conditions: Hippocampus
# [11] = test system: Mus musculus; test: Anticonvulsant activity in albino CF-1 mouse assessed as protection against 6 Hz psychomotor seizure at 100 mg/kg, ip after 0.5 hrs by minimal clonic seizure test relative to control; format: functional; conditions: route intraperitoneal
# [12] = test system: Rattus norvegicus; test: Neurotoxicity in albino Sprague-Dawley rat assessed as motor impairment up to 600 mg/kg, ip measured for 4 hrs; format: toxicity, organism-based; design: dose 600 mg/kg, route intraperitoneal; conditions: in vivo
# [13] = test system: Mus musculus; test: Anticonvulsant activity in albino CF-1 mouse assessed as protection against 6 Hz psychomotor seizure at 100 mg/kg, ip after 2 hrs by minimal clonic seizure test relative to control; format: functional; conditions: route intraperitoneal
# [14] = test system: Mus musculus; test: Anticonvulsant activity in albino CF-1 mouse assessed as protection against 6 Hz psychomotor seizure at 100 mg/kg, ip after […] by minimal clonic seizure test relative to control
# [15] = test system: Mus musculus; test: Anticonvulsant activity in ip dosed albino CF-1 mouse assessed as protection against maximal electroshock-induced seizures in half or more animals after 0.5 hrs; format: functional; conditions: albino CF-1, ip, read-out: MED
# [16] = test system: Mus musculus; test: Anticonvulsant activity in ip dosed albino CF-1 mouse assessed as protection against maximal electroshock-induced seizures in half or more animals after 4 hrs; format: functional; conditions: albino CF-1, ip, read-out: MED
# [17] = test system: Mus musculus; test: Anticonvulsant activity in albino CF-1 mouse assessed as protection against subcutaneous metrazole-induced seizures in half or more animals at 300 mg/kg, ip after 0.5 hrs; format: functional, organism-based; design: dose 300 mg/kg
# [18] = test system: Mus musculus; test: Anticonvulsant activity in ip dosed albino CF-1 mouse assessed as protection against maximal electroshock-induced seizures in half or more animals after 2 hrs; format: functional; conditions: albino CF-1, ip, read-out: MED
# [19] = test system: Rattus norvegicus; test: Effect on GABA levels in Wistar rat midbrain at 30 mg/kg, ip after 2 hrs measured per 100 mg tissue; format: functional; conditions: route intraperitoneal
# [20] = test system: Rattus norvegicus; test: Effect on GABA levels in Wistar rat medulla oblongata at 30 mg/kg, ip after 2 hrs measured per 100 mg tissue; format: functional; conditions: route intraperitoneal
# [21] = test system: Mus musculus; test: Anticonvulsant activity in ip dosed albino CF-1 mouse assessed as protection against 6 Hz psychomotor seizure after 4 hrs by minimal clonic seizure test; format: functional; conditions: albino CF-1, ip
# [22] = test system: Rattus norvegicus; test: Effect on GABA levels in Wistar rat olfactory lobe at 30 mg/kg, ip after 2 hrs measured per 100 mg tissue; format: functional; conditions: route intraperitoneal
# [23] = test system: Mus musculus; test: Anticonvulsant activity in albino CF-1 mouse at 100 mg/kg, ip assessed as protection against maximal electroshock-induced seizures in half or more animals after 4 hrs relative to control; format: functional; conditions: route intraperitoneal
# [24] = test system: Rattus norvegicus; test: Effect on GABA levels in Wistar rat cerebellum at 30 mg/kg, ip after 2 hrs measured per 100 mg tissue; format: functional; conditions: route intraperitoneal
# [25] = Inhibition of voltage-dependent calcium channel subunit alpha-2/delta gabapentin binding site (unknown origin); design: species or system Homo sapiens
# [26] = test system: Mus musculus; test: Anticonvulsant activity in albino CF-1 mouse assessed as protection against 6 Hz psychomotor seizure at 100 mg/kg, ip after 4 hrs by minimal clonic seizure test; format: functional; conditions: route intraperitoneal
# [27] = test system: Mus musculus; test: Anticonvulsant activity in albino CF-1 mouse at 300 mg/kg, ip assessed as protection against maximal electroshock-induced seizures in half or more animals after 4 hrs relative to control; format: functional; conditions: route intraperitoneal
compound,measurement,setting,value
CCCC(CCC)C(=O)[O-].[Na+] [VALPROATE SODIUM],Activity,[1],inactive
same,Activity,[2],inactive
same,Activity,[3],inactive
same,minimal effective dose,[4],300 mg/kg
same,Activity,[5],inactive
COc1ccc(NC(=S)N/N=C/c2ccc(Oc3ccccc3)cc2)cc1,Activity,[6],inactive
same,Activity,[7],75%
same,Activity,[8],inactive
same,logP at 24 h,[9],4.99
same,Activity,[10],inactive
same,Activity,[11],50%
same,Activity,[12],Non-toxic
S=C(N/N=C/c1ccc(Oc2ccc3c(c2)OCO3)cc1)Nc1ccccc1,logP at 24 h,[9],4.8
S=C(N/N=C/c1ccc(Oc2ccc3ccccc3c2)cc1)NC1CCCCC1,logP at 24 h,[9],6.79
COc1ccc(NC(=S)N/N=C/c2ccc(Oc3ccc([N+](=O)[O-])cc3)cc2)cc1,logP at 24 h,[9],4.9
Cc1ccc(NC(=S)N/N=C/c2ccc(Oc3ccc([N+](=O)[O-])cc3)cc2)cc1,logP at 24 h,[9],5.23
S=C(N/N=C/c1ccc(Oc2ccc3ccccc3c2)cc1)Nc1ccccc1,logP at 24 h,[9],6.07
O=[N+]([O-])c1ccc(Oc2ccc(/C=N/NC(=S)NC3CCCCC3)cc2)cc1,logP at 24 h,[9],5.51
COc1ccc(NC(=S)N/N=C/c2ccc(Oc3ccc4ccccc4c3)cc2)cc1,logP at 24 h,[9],6.11
Cc1ccc(NC(=S)N/N=C/c2ccc(Oc3ccc(Br)cc3)cc2)cc1,logP at 24 h,[9],6.23
Fc1ccc(Oc2ccc(/C=N/NC(=S)NC3CCCCC3)cc2)cc1,Activity,[13],50%
same,logP at 24 h,[9],5.82
same,Activity,[14],inactive
Cc1ccc(NC(=S)N/N=C/c2ccc(Oc3ccc(F)cc3)cc2)cc1,logP at 24 h,[9],5.48
Cc1ccc(NC(=S)N/N=C/c2ccc(Oc3ccc(C)cc3)cc2)cc1,logP at 24 h,[9],5.84
Cc1ccc(Oc2ccc(/C=N/NC(=S)NC3CCCCC3)cc2)cc1,logP at 24 h,[9],6.17
Fc1ccc(Oc2ccc(/C=N/NC(=S)Nc3ccccc3)cc2)cc1,logP at 24 h,[9],5.09
same,Activity,[14],inactive
S=C(N/N=C/c1ccc(Oc2ccccc2)cc1)NC1CCCCC1,logP at 24 h,[9],5.7
O=C1NC(=O)C(c2ccccc2)(c2ccccc2)N1 [PHENYTOIN],minimal effective dose,[15],30 mg/kg
same,Activity,[1],inactive
same,minimal effective dose,[16],30 mg/kg
same,Activity,[17],inactive
same,minimal effective dose,[18],30 mg/kg
S=C(N/N=C/c1ccc(Oc2ccc(Br)cc2)cc1)NC1CCCCC1,logP at 24 h,[9],6.36
same,Activity,[14],inactive
COc1ccc(NC(=S)N/N=C/c2ccc(Oc3ccc4c(c3)OCO4)cc2)cc1,logP at 24 h,[9],4.9
COc1ccc(NC(=S)N/N=C/c2ccc(Oc3ccc(Br)cc3)cc2)cc1,logP at 24 h,[9],5.84
Cc1cc(Oc2ccc(/C=N/NC(=S)Nc3ccccc3)cc2)ccc1Cl,logP at 24 h,[9],6.03
same,Activity,[14],inactive
O=[N+]([O-])c1ccc(Oc2ccc(/C=N/NC(=S)Nc3ccccc3)cc2)cc1,logP at 24 h,[9],4.95
COc1ccc(NC(=S)N/N=C/c2ccc(Oc3ccc(Cl)c(C)c3)cc2)cc1,logP at 24 h,[9],6.03
same,Activity,[14],inactive
S=C(N/N=C/c1ccc(Oc2ccc(Cl)cc2)cc1)NC1CCCCC1,Activity,[19],51.76 mg
same,Activity,[6],inactive
same,Activity,[7],75%
same,Activity,[1],inactive
same,Activity,[8],inactive
same,Activity,[20],47.24 mg
same,ED50,[21],> 100 mg/kg
same,Activity,[3],inactive
same,logP at 24 h,[9],6.44
same,Activity,[10],inactive
same,Activity,[11],75%
same,minimal effective dose,[16],100 mg/kg
same,Activity,[12],Non-toxic
same,Activity,[22],14.81 mg
same,Activity,[14],inactive
same,Activity,[17],inactive
same,Activity,[23],100%
same,Activity,[5],inactive
same,Activity,[24],24.43 mg
Cc1ccc(Oc2ccc(/C=N/NC(=S)Nc3ccccc3)cc2)cc1,logP at 24 h,[9],5.39
Cc1ccc(NC(=S)N/N=C/c2ccc(Oc3ccc4ccccc4c3)cc2)cc1,logP at 24 h,[9],6.56
S=C(N/N=C/c1ccc(Oc2ccccc2)cc1)Nc1ccccc1,logP at 24 h,[9],4.9
COc1ccc(NC(=S)N/N=C/c2ccc(Oc3ccc(Cl)cc3)cc2)cc1,logP at 24 h,[9],5.68
S=C(N/N=C/c1ccc(Oc2ccc(Cl)cc2)cc1)Nc1ccccc1,logP at 24 h,[9],5.52
COc1ccc(NC(=S)N/N=C/c2ccc(Oc3ccc(F)cc3)cc2)cc1,logP at 24 h,[9],5.09
same,Activity,[14],inactive
same,Activity,[26],25%
O=C(O)[C@H]1CNCC12CCCCC2,IC50,[25],0.12 µM
Cc1ccc(NC(=S)N/N=C/c2ccc(Oc3ccc(Cl)cc3)cc2)cc1,logP at 24 h,[9],6.71
COc1ccc(NC(=S)N/N=C/c2ccc(Oc3ccc(C)cc3)cc2)cc1,Activity,[19],58.09 mg
same,Activity,[6],inactive
same,Activity,[7],100%
same,Activity,[1],inactive
same,Activity,[8],inactive
same,Activity,[13],50%
same,Activity,[20],50.08 mg
same,ED50,[21],> 100 mg/kg
same,Activity,[3],inactive
same,logP at 24 h,[9],5.44
same,Activity,[10],inactive
same,minimal effective dose,[16],300 mg/kg
same,Activity,[12],Non-toxic
same,Activity,[22],15.84 mg
same,Activity,[27],100%
same,Activity,[17],inactive
same,Activity,[5],inactive
same,Activity,[24],27.02 mg
S=C(N/N=C/c1ccc(Oc2ccc(Br)cc2)cc1)Nc1ccccc1,logP at 24 h,[9],5.62
same,Activity,[14],inactive
Cc1ccc(NC(=S)N/N=C/c2ccc(Oc3ccccc3)cc2)cc1,logP at 24 h,[9],5.28
same,Activity,[11],50%
same,Activity,[14],inactive
Cc1ccc(NC(=S)N/N=C/c2ccc(Oc3ccc4c(c3)OCO4)cc2)cc1,logP at 24 h,[9],5.34
Cc1cc(Oc2ccc(/C=N/NC(=S)NC3CCCCC3)cc2)ccc1Cl,Activity,[7],75%
same,logP at 24 h,[9],6.76
same,Activity,[14],inactive
S=C(N/N=C/c1ccc(Oc2ccc3c(c2)OCO3)cc1)NC1CCCCC1,logP at 24 h,[9],5.56
